Assay results published in patent US20220389003A1, “4-SUBSTITUTED INDOLE AND INDAZOLE SULFONAMIDO DERIVATIVES AS PARG INHIBITORS” (IDEAYA BIOSCIENCES, INC., priority 2019, published 2022).

Legend:
PARG [1] = molecular target: T1, PARG (Homo sapiens, UniProt Q86W56); assay: Inhibition of PARG enzymatic assay (TR-FRET enzymatic IC50 assay); type: biochemical; design: purchased Peak Proteins; details: hPARG 250 pM, biotinylated-PARylated PARP substrate 30 nM
Procedure, shortened: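 Compound preincubated 1 h with 250 pM His-tagged hPARG, then 30 nM biotinylated PARylated hPARP1 substrate added for 10 min; buffer 50 mM Tris-HCl pH 7.4, EDTA/EGTA, 1 mM DTT, 23° C. TR-FRET read after 1 h with anti-His ULight antibody and streptavidin-europium; inhibition scaled between DMSO and no-enzyme controls.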

[2] = tested on: HCC1806-XRCC1 KD (knock down) cells; assay: Cellular viability assay (Cell Titer-Glo); type: cell-based; details: 96 h, HCC1806-shXRCC1 cells, 4 days of incubation, read-out: PARGi cell viability
Procedure, shortened: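 XRCC1-knockdown HCC1806 cells seeded 24 h before dosing; 9-point 1:3 dilution from 30 μM top concentration, duplicates, 4-day incubation. Viability by CellTiter-Glo luminescence, normalized to DMSO wells as % of control; curves fit with 4-parameter inhibition model.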

PARG [3] = molecular target: T1, PARG; assay: Inhibition of PARG cellular assay (PAR foci in HeLa cells after MMS); type: cell-based; design: endogenous in cells; host or cells: HeLa; details: compound 1 h then MMS 1 h
Procedure, shortened: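 HeLa cells pretreated with compound for 1 h, then given MMS for a further 1 h, fixed and immunostained for PAR polymer. High-content imaging quantified nuclear PAR foci intensity (PAR Foci IC50) and percent cells with foci signal >1.3 (PAR % positive IC50).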

T1 sequence (Q86W56 whole entry): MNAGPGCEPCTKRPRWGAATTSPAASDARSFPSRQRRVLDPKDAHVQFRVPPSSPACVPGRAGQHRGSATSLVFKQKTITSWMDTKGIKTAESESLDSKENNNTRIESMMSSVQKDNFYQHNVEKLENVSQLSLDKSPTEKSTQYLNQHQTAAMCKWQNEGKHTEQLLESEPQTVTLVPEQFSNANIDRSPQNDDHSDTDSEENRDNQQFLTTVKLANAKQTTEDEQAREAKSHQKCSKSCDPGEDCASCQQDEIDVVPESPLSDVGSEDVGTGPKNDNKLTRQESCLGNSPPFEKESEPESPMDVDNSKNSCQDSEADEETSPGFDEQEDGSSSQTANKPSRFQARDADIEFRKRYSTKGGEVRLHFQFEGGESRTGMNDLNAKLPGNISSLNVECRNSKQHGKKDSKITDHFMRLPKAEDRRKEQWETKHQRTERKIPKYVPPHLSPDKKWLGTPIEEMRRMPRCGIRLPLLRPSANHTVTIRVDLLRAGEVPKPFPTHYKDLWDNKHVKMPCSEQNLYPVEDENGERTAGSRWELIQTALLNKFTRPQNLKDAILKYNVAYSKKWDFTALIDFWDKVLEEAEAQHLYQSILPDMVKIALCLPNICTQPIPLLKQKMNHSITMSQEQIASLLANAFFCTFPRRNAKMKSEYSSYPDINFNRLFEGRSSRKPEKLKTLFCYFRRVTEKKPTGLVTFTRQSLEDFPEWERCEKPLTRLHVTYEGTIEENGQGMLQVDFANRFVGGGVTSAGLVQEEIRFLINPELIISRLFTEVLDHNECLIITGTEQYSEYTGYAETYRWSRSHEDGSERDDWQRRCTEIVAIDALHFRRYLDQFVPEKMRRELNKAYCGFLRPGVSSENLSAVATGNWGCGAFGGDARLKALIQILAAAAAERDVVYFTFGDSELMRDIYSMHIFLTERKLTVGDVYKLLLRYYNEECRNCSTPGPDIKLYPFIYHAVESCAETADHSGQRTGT

SMILES	IC50 (PARG [1]) [nM]	IC50 [2] [nM]	IC50 (PARG [3]) [nM]
Cc1nnc(-n2ncc3c(N4CCN(C(=O)C(C)C)CC4)cc(S(=O)(=O)NC4(C#N)CC4)cc32)s1 [Example 97, 1-[({1-(5-methyl(1,3,4-thiadiazol-2-yl))-4-[4-(2-methylpropanoyl)piperazinyl]-1H-indazol-6-yl}sulfonyl)amino]cyclopropanecarbonitrile]	≤ 100	1000 to 10000	100 to 300
CC(C)NS(=O)(=O)c1cc(N2CCN(C(=O)C(C)C)CC2)c2cnn(-c3nnc(C(F)F)s3)c2c1 [Example 98, 1-[4-(1-[5-(difluoromethyl)(1,3,4-thiadiazol-2-yl)]-6-{[(methylethyl)amino]sulfonyl}(1H-indazol-4-yl))piperazinyl]-2-methylpropan-1-one]	100 to 300	1000 to 10000	1000 to 10000
CC(C)C(=O)N1CCN(c2cc(S(=O)(=O)NC(C)(C)C)cc3c2cnn3-c2nnc(C(F)F)s2)CC1 [Example 99, 1-[4-(1-[5-(difluoromethyl)(1,3,4-thiadiazol-2-yl)]-6-{[(tert-butyl)amino]sulfonyl}(1H-indazol-4-yl))piperazinyl]-2-methylpropan-1-one]	100 to 300	1000 to 10000	1000 to 10000
N#CC1(NS(=O)(=O)c2cc(N3CCOCC3)c3cnn(-c4nnc(C(F)F)s4)c3c2)CC1 [Example 100, 1-[({1-[5-(difluoromethyl)(1,3,4-thiadiazol-2-yl)]-4-morpholin-4-yl-1H-indazol-6-yl}sulfonyl)amino]cyclopropanecarbonitrile]	100 to 300	1000 to 10000	300 to 1000
C[C@H]1CN(c2cc(S(=O)(=O)NC3(C#N)CC3)cc3c2cnn3-c2nnc(C(F)F)s2)CCO1 [Example 103, (S)—N-(1-cyanocyclopropyl)-1-(5-(difluoromethyl)-1,3,4-thiadiazol-2-yl)-4-(2-methylmorpholino)-1H-indazole-6-sulfonamide]	100 to 300	1000 to 10000	100 to 300
N#CC1(NS(=O)(=O)c2cc(N3CCC(F)CC3)c3cnn(-c4nnc(C(F)F)s4)c3c2)CC1 [Example 104, 1-[({1-[5-(difluoromethyl)(1,3,4-thiadiazol-2-yl)]-4-(4-fluoropiperidyl)-1H-indazol-6-yl}sulfonyl)amino]cyclopropanecarbonitrile]	300 to 1000	1000 to 10000	300 to 1000
C[C@@H]1CN(c2cc(S(=O)(=O)NC3(C#N)CC3)cc3c2cnn3-c2nnc(C(F)F)s2)CCN1C(=O)C1CCN(CC(F)F)CC1 [Example 106, 1-({[4-((3R)-4-{[1-(2,2-difluoroethyl)(4-piperidyl)]carbonyl}-3-methylpiperazinyl)-1-[5-(difluoromethyl)(1,3,4-thiadiazol-2-yl)]-1H-indazol-6-yl]sulfonyl}amino) cyclopropanecarbonitrile]	≤ 100	1000 to 10000	≤ 100
N#CC1(NS(=O)(=O)c2cc(N3CCN(C(=O)C4CCN(CC(F)F)CC4)CC3)c3cnn(-c4nnc(C(F)F)s4)c3c2)CC1 [Example 107, 1-({[4-(4-{[1-(2,2-difluoroethyl)(4-piperidyl)]carbonyl}piperazinyl)-1-[5-(difluoro-methyl)(1,3,4-thiadiazol-2-yl)]-1H-indazol-6-yl]sulfonyl}amino)cyclopropane carbonitrile]	≤ 100	1000 to 10000	100 to 300
C[C@@H]1CN(c2cc(S(=O)(=O)NC3(C#N)CC3)cc3c2cnn3-c2nnc(C(F)F)s2)CCN1C(=O)C1(C)CC1 [Example 108, 1-{[(4-{(3R)-3-methyl-4-[(methylcyclopropyl)carbonyl]piperazinyl}-1-[5-(difluoro-methyl)(1,3,4-thiadiazol-2-yl)]-1H-indazol-6-yl)sulfonyl]amino}cyclopropane carbonitrile]	≤ 100	< 1000	≤ 100
C[C@@H]1CN(c2cc(S(=O)(=O)NC3(C#N)CC3)cc3c2cnn3-c2nnc(C(F)F)s2)CCN1C(=O)C1(C)CCC1 [Example 109, 1-{[(4-{(3R)-3-methyl-4-[(methylcyclobutyl)carbonyl]piperazinyl}-1-[5-(difluoro-methyl)(1,3,4-thiadiazol-2-yl)]-1H-indazol-6-yl)sulfonyl]amino}cyclopropane carbonitrile]	≤ 100	< 1000	≤ 100
CCC(C)C(=O)N1CCN(c2cc(S(=O)(=O)NC3(C#N)CC3)cc3c2cnn3-c2nnc(C(F)F)s2)C[C@H]1C (stereo partly drawn) [Example 110, 1-[({4-[(3R)-3-methyl-4-(2-methylbutanoyl)piperazinyl]-1-[5-(difluoromethyl)-(1,3,4-thiadiazol-2-yl)]-1H-indazol-6-yl}sulfonyl)amino]cyclopropane carbonitrile]	≤ 100	< 1000	100 to 300
CC1(C(=O)N2CCN(c3cc(S(=O)(=O)NC4(C#N)CC4)cc4c3cnn4-c3nnc(C(F)F)s3)CC2)CC1 [Example 111, 1-{[(1-[5-(difluoromethyl)(1,3,4-thiadiazol-2-yl)]-4-{4-[(methylcyclopropyl)carbonyl]piperazinyl}-1H-indazol-6-yl)sulfonyl]amino}cyclopropanecarbonitrile]	≤ 100	< 1000	≤ 100
CC1(C(=O)N2CCN(c3cc(S(=O)(=O)NC4(C#N)CC4)cc4c3cnn4-c3nnc(C(F)F)s3)CC2)CCC1 [Example 112, 1-{[(1-[5-(difluoromethyl)(1,3,4-thiadiazol-2-yl)]-4-{4-[(methylcyclobutyl)carbonyl]piperazinyl}-1H-indazol-6-yl)sulfonyl]amino}cyclopropanecarbonitrile]	≤ 100	< 1000	≤ 100
CCC(C)C(=O)N1CCN(c2cc(S(=O)(=O)NC3(C#N)CC3)cc3c2cnn3-c2nnc(C(F)F)s2)CC1 (stereo not drawn) [Example 113, 1-[({1-[5-(difluoromethyl)(1,3,4-thiadiazol-2-yl)]-4-[4-(2-methylbutanoyl)piperazinyl]-1H-indazol-6-yl}sulfonyl)amino]cyclopropanecarbonitrile]	≤ 100	< 1000	≤ 100
N#CC1(NS(=O)(=O)c2cc(N3CCC4(CC3)COC4)c3c(Cl)nn(-c4nnc(C(F)F)s4)c3c2)CC1 [Example 114, 1-[({1-[5-(difluoromethyl)(1,3,4-thiadiazol-2-yl)]-3-chloro-4-(2-oxa-7-azaspiro[3.5]non-7-yl)-1H-indazol-6-yl}sulfonyl)amino]cyclopropanecarbonitrile]	1000 to 10000	10000 to 20000	300 to 1000
CN(C)C(=O)N1CCN(c2cc(S(=O)(=O)NC3(C#N)CC3)cc3c2c(Cl)nn3-c2nnc(C(F)F)s2)CC1 [Example 115, [4-(1-[5-(difluoromethyl)(1,3,4-thiadiazol-2-yl)]-3-chloro-6-{[(cyanocyclopropyl)-amino]sulfonyl}(1H-indazol-4-yl))piperazinyl]-N,N-dimethylcarboxamide]	300 to 1000	10000 to 20000	300 to 1000
